Assay results taken from patent US4419123A, “Herbicidal 4-trifluoromethyl-3'-carbon-substituted-4'-substituted diphenyl ethers” (Rohm and Haas Company, priority 1981, dated 1983).

Key:
soybeans = experiment: Crop tolerance (selective herbicidal activity), soybeans; format: in vivo; details: preemergence applications
[1] = Postemergence herbicidal activity (% control) against monocot weeds; format: in vivo; details: post-emergence, 336 h, average, about two weeks after application, read-out: Herbicidal activity (% control), postemergence, monocots; for activity at 2241.7 g/ha: 2 lb./A.; for activity at 4483.4 g/ha: 4 lb./A.
From the text: (§1) barnyardgrass (Echinochloa crusgalli) crabgrass (Digitaria spp.) nutsedge (Cyperus esculentus)
(§2) At 2 and 4 pounds per acre:
(§3) **Bermudagrass (Cynodon dactylon)
(§4) *downy brome (Bromus tectorum) foxtail (Setaria faberii)
(§5) Johnsongrass (Sorghum halepense) […]
(§6) quackgrass (Agropyron repens)
(§7) *ryegrass (Lolium perenne)
(§8) *wild oats (Avena factua)
(§9) *yellow millet (Panicum miliaceum)
(§10) The following test procedure is employed.

[2] = Preemergence herbicidal activity (% control) against dicot weeds; details: pre-emergence, 336 h; for activity at 2241.7 g/ha: read-out: Herbicidal activity (% control), preemergence, dicots, 2 lb./A., average, about two weeks after application; for activity at 4483.4 g/ha: read-out: Herbicidal activity (% control), preemergence, dicots, 4 lb./A., average, about two weeks after application
wheat = experiment: Crop tolerance (selective herbicidal activity), wheat; format: in vivo
Experimental: as §10
(§11) Following the general test procedure of Example 37, diphenyl ethers are evaluated for significant tolerance (as shown by 50% or less kill of the test crop at levels of application which give more than 50% kill of many or all of the weeds of Example 73) towards some or all of the following common agronomic crops (not all compounds tested against all crops): alfalfa, snapbeans, corn, cotton, cucumbers, peanuts, rape, rice, safflower, soybeans, tomatoes, and wheat.

[3] = Postemergence herbicidal activity (% control) against dicot weeds; details: post-emergence, 336 h; for activity at 2241.7 g/ha: read-out: Herbicidal activity (% control), postemergence, dicots, 2 lb./A., average, about two weeks after application; for activity at 4483.4 g/ha: read-out: Herbicidal activity (% control), postemergence, dicots, 4 lb./A., average, about two weeks after application
peanuts = experiment: Crop tolerance (selective herbicidal activity), peanuts; format: in vivo; details: preemergence applications
[4] = Preemergence herbicidal activity (% control) against monocot weeds; format: in vivo; details: pre-emergence, 336 h, average, about two weeks after application, read-out: Herbicidal activity (% control), preemergence, monocots; for activity at 2241.7 g/ha: 2 lb./A.; for activity at 4483.4 g/ha: 4 lb./A.
From the text: as §1, §2, §3, §4, §5, §6, §7, §8, §9, §10

cotton = experiment: Crop tolerance (selective herbicidal activity), cotton; format: in vivo; details: preemergence applications
Experimental: as §10, §11

rice = experiment: Crop tolerance (selective herbicidal activity), rice; format: in vivo
corn = experiment: Crop tolerance (selective herbicidal activity), corn; format: in vivo
snapbeans = experiment: Crop tolerance (selective herbicidal activity), snapbeans; format: in vivo; details: preemergence applications
Experimental: as §10, §11

[5] = test system: Monocots (barnyardgrass, Bermudagrass, crabgrass, downy brome, foxtail, Johnsongrass, nutsedge, quackgrass, ryegrass, wild oats, yellow millet); experiment: Postemergence herbicidal activity (% control) against monocot weeds; format: in vivo; details: average, about two weeks after application
From the text: as §1, §2, §3, §4, §5, §6, §7, §8, §9, §10

[6] = test system: Dicots (bindweed, cocklebur, coffeeweed, curly dock, lambsquarters, morningglory, pigweed, ragweed, smartweed, tomato, velvetleaf, wild carrot, wild mustard); experiment: Preemergence herbicidal activity (% control) against dicot weeds; details: average, about two weeks after application
[7] = test system: Dicots (bindweed, cocklebur, coffeeweed, curly dock, lambsquarters, morningglory, pigweed, ragweed, smartweed, tomato, velvetleaf, wild carrot, wild mustard); experiment: Postemergence herbicidal activity (% control) against dicot weeds; details: average, about two weeks after application
[8] = test system: Monocots (barnyardgrass, Bermudagrass, crabgrass, downy brome, foxtail, Johnsongrass, nutsedge, quackgrass, ryegrass, wild oats, yellow millet); experiment: Preemergence herbicidal activity (% control) against monocot weeds; format: in vivo; details: average, about two weeks after application
From the text: as §1, §2, §3, §4, §5, §6, §7, §8, §9, §10

C#CC(C)Oc1cc(Oc2ccc(C(F)(F)F)cc2Cl)ccc1[N+](=O)[O-] (centres unmarked) [Example 30]
Tolerance to soybeans (soybeans): Tolerance (significant tolerance (as shown by 50% or less kill of the test crop at levels of application which give more than 50% kill of many or all of the weeds of Example 73)) | activity at 2241.7 g/ha [1]: 91% | activity at 4483.4 g/ha [1]: 75% | activity at 2241.7 g/ha [2]: 94% | activity at 4483.4 g/ha [2]: 99% | Tolerance to wheat (wheat; postemergence applications): Tolerance (significant tolerance (as shown by 50% or less kill of the test crop at levels of application which give more than 50% kill of many or all of the weeds of Example 73)) | activity at 2241.7 g/ha [3]: 100% | activity at 4483.4 g/ha [3]: 100% | Tolerance to peanuts (peanuts): Tolerance (significant tolerance (as shown by 50% or less kill of the test crop at levels of application which give more than 50% kill of many or all of the weeds of Example 73)) | activity at 2241.7 g/ha [4]: 78% | activity at 4483.4 g/ha [4]: 81% | Tolerance to cotton (cotton): Tolerance (significant tolerance (as shown by 50% or less kill of the test crop at levels of application which give more than 50% kill of many or all of the weeds of Example 73)) | Tolerance to rice (rice; postemergence applications or applications on transplanted rice): Tolerance (significant tolerance (as shown by 50% or less kill of the test crop at levels of application which give more than 50% kill of many or all of the weeds of Example 73)) | Tolerance to rice (rice; preemergence applications): Tolerance (significant tolerance (as shown by 50% or less kill of the test crop at levels of application which give more than 50% kill of many or all of the weeds of Example 73))

CCOC(=O)C(C)Oc1cc(Oc2ccc(C(F)(F)F)cc2Cl)ccc1[N+](=O)[O-] (stereo not drawn) [Example 26, 2-Chloro-α,α,α-trifluoro-p-tolyl-3-(1-carbethoxyethoxy)-4-nitrophenyl ether]
Tolerance to soybeans (soybeans): Tolerance (significant tolerance (as shown by 50% or less kill of the test crop at levels of application which give more than 50% kill of many or all of the weeds of Example 73)) | activity at 2241.7 g/ha [1]: 93% | activity at 4483.4 g/ha [1]: 99% | activity at 2241.7 g/ha [2]: 99% | activity at 4483.4 g/ha [2]: 100% | Tolerance to corn (corn; postemergence applications): Tolerance (significant tolerance (as shown by 50% or less kill of the test crop at levels of application which give more than 50% kill of many or all of the weeds of Example 73)) | Tolerance to wheat (wheat; preemergence applications): Tolerance (significant tolerance (as shown by 50% or less kill of the test crop at levels of application which give more than 50% kill of many or all of the weeds of Example 73)) | activity at 2241.7 g/ha [3]: 100% | activity at 4483.4 g/ha [3]: 100% | activity at 2241.7 g/ha [4]: 75% | activity at 4483.4 g/ha [4]: 98% | Tolerance to snapbeans (snapbeans): Tolerance (significant tolerance (as shown by 50% or less kill of the test crop at levels of application which give more than 50% kill of many or all of the weeds of Example 73))

CCN(CC)c1cc(Oc2ccc(C(F)(F)F)cc2Cl)ccc1[N+](=O)[O-] [Example 21, 2-Chloro-α,α,α-trifluoro-p-tolyl-3-diethylamino-4-nitrophenyl ether]
Tolerance to soybeans (soybeans): Tolerance (significant tolerance (as shown by 50% or less kill of the test crop at levels of application which give more than 50% kill of many or all of the weeds of Example 73)) | activity at 2241.7 g/ha [1]: 90% | activity at 4483.4 g/ha [1]: 74% | activity at 2241.7 g/ha [2]: 90% | activity at 4483.4 g/ha [2]: 99% | Tolerance to corn (corn; postemergence applications): Tolerance (significant tolerance (as shown by 50% or less kill of the test crop at levels of application which give more than 50% kill of many or all of the weeds of Example 73)) | Tolerance to corn (corn; preemergence applications): Tolerance (significant tolerance (as shown by 50% or less kill of the test crop at levels of application which give more than 50% kill of many or all of the weeds of Example 73)) | Tolerance to wheat (wheat; postemergence applications): Tolerance (significant tolerance (as shown by 50% or less kill of the test crop at levels of application which give more than 50% kill of many or all of the weeds of Example 73)) | activity at 2241.7 g/ha [3]: 94% | activity at 4483.4 g/ha [3]: 96% | Tolerance to peanuts (peanuts): Tolerance (significant tolerance (as shown by 50% or less kill of the test crop at levels of application which give more than 50% kill of many or all of the weeds of Example 73)) | activity at 2241.7 g/ha [4]: 79% | activity at 4483.4 g/ha [4]: 91% | Tolerance to rice (rice; preemergence applications): Tolerance (significant tolerance (as shown by 50% or less kill of the test crop at levels of application which give more than 50% kill of many or all of the weeds of Example 73))

O=C([O-])c1cc(Oc2ccc(C(F)(F)F)cc2Cl)ccc1[N+](=O)[O-].[Na+] [Example 48A, Sodium 5-(2-Chloro-4-trifluoromethylphenoxy)-2-nitrobenzoate]
Herbicidal activity (% control), postemergence, monocots ([5]; 2 lb./A.): 86% | Herbicidal activity (% control), postemergence, monocots ([5]; 4 lb./A.): 92% | Herbicidal activity (% control), preemergence, dicots ([6]; 2 lb./A.): 84% | Herbicidal activity (% control), preemergence, dicots ([6]; 4 lb./A.): 98% | Herbicidal activity (% control), postemergence, dicots ([7]; 2 lb./A.): 98% | Herbicidal activity (% control), postemergence, dicots ([7]; 4 lb./A.): 100% | Herbicidal activity (% control), preemergence, monocots ([8]; 2 lb./A.): 89% | Herbicidal activity (% control), preemergence, monocots ([8]; 4 lb./A.): 99%

CCNc1cc(Oc2ccc(C(F)(F)F)cc2Cl)ccc1[N+](=O)[O-] [Example 19, 2-Chloro-α,α,α-trifluoro-p-tolyl-3-ethylamino-4-nitrophenyl ether]
Tolerance to soybeans (soybeans): Tolerance (significant tolerance (as shown by 50% or less kill of the test crop at levels of application which give more than 50% kill of many or all of the weeds of Example 73)) | activity at 2241.7 g/ha [1]: 94% | activity at 4483.4 g/ha [1]: 84% | activity at 2241.7 g/ha [2]: 91% | activity at 4483.4 g/ha [2]: 96% | Tolerance to corn (corn; postemergence applications): Tolerance (significant tolerance (as shown by 50% or less kill of the test crop at levels of application which give more than 50% kill of many or all of the weeds of Example 73)) | Tolerance to corn (corn; preemergence applications): Tolerance (significant tolerance (as shown by 50% or less kill of the test crop at levels of application which give more than 50% kill of many or all of the weeds of Example 73)) | Tolerance to wheat (wheat; preemergence applications): Tolerance (significant tolerance (as shown by 50% or less kill of the test crop at levels of application which give more than 50% kill of many or all of the weeds of Example 73)) | activity at 2241.7 g/ha [3]: 97% | activity at 4483.4 g/ha [3]: 98% | Tolerance to peanuts (peanuts): Tolerance (significant tolerance (as shown by 50% or less kill of the test crop at levels of application which give more than 50% kill of many or all of the weeds of Example 73)) | activity at 2241.7 g/ha [4]: 77% | activity at 4483.4 g/ha [4]: 91% | Tolerance to rice (rice; preemergence applications): Tolerance (significant tolerance (as shown by 50% or less kill of the test crop at levels of application which give more than 50% kill of many or all of the weeds of Example 73))
